Nine compounds from patent publication US6696495B2, “Treatment of disorders secondary to organic impairments” (Snowden Pharmaceuticals, LLC, priority 1998, dated 2004) can be followed below.

Data set [1] deals with Dementia, Alzheimer's-Type. As to the kind of experiment: Case history 24. The conditions noted are these: before sibutramine. The format is in vivo, human. The method, then: 24. The Symptoms Due to Dementia, Alzheimer's-Type
person one was diagnosed with Dementia. The symptoms they suffered from included memory loss and severe confusion. They tried a variety of treatments to relieve their symptoms including choldine esterase inhibitors, antidepressants, Ritilin, and aterol. […] They were then tested off of sibutramine. […] They began to suffer from a lowered I.Q. and their memory deteriorated.

The subject of data set [2] is Severe Atypical Psychosis. As to the kind of experiment: Case history 1, Sibutramine Patient No. 97. The format is in vivo, human. The conditions noted are these: treatments before sibutramine.
Data set [3] deals with Sexual Function, ADD, and Rage Outbursts. As to the kind of experiment: Case history 3, Sibutramine Patient No. 100. It counts as in vivo, human. The conditions noted are these: mood swings, cognitive, anger, sexual problems; before sibutramine.
Data set [4] deals with Sexual Gender Choice Change. As to the kind of experiment: Case history 7, Sibutramine Patient No. 99. Particulars: depression; impulsive behaviors, mood swings, epileptic symptoms. It counts as in vivo, human.
For data set [5], the system named is Tourette's Disease Tics, Violence, and ADHD. As to the kind of experiment: Case history 8, Sibutramine Patient No. 47. It counts as in vivo, human. Particulars: over six years before sibutramine.
Data set [6] relates to Asocial Behavior, Violence, and Hyposexuality. As to the kind of experiment: Case history 10, Sibutramine Patient No. 54. It counts as in vivo, human. Particulars: before sibutramine.
Data set [7] relates to Severe Post-Traumatic Stress Reaction. The conditions noted are these: for response of PTSD symptoms to other medications: before sibutramine. The method, then:
Finally, this patient was taken off of fluoxetine 20 mg when sibutramine treatment was initiated.

The subject of a further data set is Huntington's Disease. As to the kind of experiment: Case history 12, Sibutramine Patient No. 113. The conditions noted are these: after worsening of symptoms. It counts as in vivo, human.
Data set [8] relates to Tourette's Tics, Asocial Behavior, and Relief of Hyposexuality. Particulars: before sibutramine.
Data set [9] relates to Non-Tourette's tics, obsessive-compulsive rituals, and attention deficit hyperactive disorder (ADHD). Particulars: before sibutramine.
Data set [10] deals with Sexual Obsessive-Compulsive Behavior, ADD and Executive Function. As to the kind of experiment: Case history 6, Sibutramine Patient No. 77. It counts as in vivo, human. The conditions noted are these: before sibutramine.
Data set [11] deals with ADHD Refractory to Other Treatments. The format is in vivo, human. The conditions noted are these: for response of ADHD to other medications: four years before sibutramine; for side effects of other medications: human, in vivo. The method, then: 16. ADHD Refractory to Other Treatments (Problem No. 6) Sibutramine Patient No. 16
The amphetamines made their nervous, jittery, and unable to sleep. […] They were started on sibutramine 10 mg every morning by mouth. […] After the first month, their dose was changed to 5 mg three times daily due to a five hour duration of effects.

The subject of data set [12] is frontal lobe executive function, ADHD, and hyposexuality. Particulars: human, in vivo.
The subject of the next data set is Sexual Function and ADD. As to the kind of experiment: Case history 4, Sibutramine Patient No. 109. It counts as in vivo, human. The conditions noted are these: before sibutramine.
For data set [13], the system named is Torticollis, Lingual Dystonia and Dyskinesia. As to the kind of experiment: Case history 23. It counts as in vivo, human. The conditions noted are these: in vivo.

Regarding `COC(=O)C(c1ccccc1)C1CCCCN1` (stereo not shown) [Ritilin], the “response to other treatments” value in data set [1] was “None of these treatments had any effect on their symptoms”.
As for `NC(=O)N1c2ccccc2C=Cc2ccccc21` [carbamazepine], the “response of psychosis symptoms to other medications” value in data set [2] was “did not control their symptoms”. Moreover, the “response to other medications” value in data set [3] is “helped with their mood swings but not with their anger, sexual, or cognitive problems”; in [4] it was “impulsive behaviors, mood swings, and epileptic symptoms were relieved”; in [5] it was “without any good results”; in data set [6], “without any changes in their speech or mode of communication”; in data set [8] it was “without success”; in data set [9] it was “unsuccessful”. Further, the “response of PTSD symptoms to other medications” value (from here on “response of PTSD symptoms”) in data set [7] is listed as “unsuccessful”. Also, the “response to previous medications” value in the data set with Huntington's Disease was “no longer responded”.
In the case of `C[C@H](N)Cc1ccccc1` [dextroamphetamine], the “response to other medications” value is “unsuccessful” in data set [3], “unsuccessful” in data set [10] and “without success” in data set [8]. Further, the “response of PTSD symptoms” value in data set [7] is “unsuccessful”. Also, the “response of ADHD to other medications” value in data set [11] is recorded as “without success”.
Regarding `CNCCC(Oc1ccc(C(F)(F)F)cc1)c1ccccc1` (stereo not shown) [fluoxetine], in data set [2], the “response of psychosis symptoms to other medications” value was “without success”. Besides, the “response to other medications” value is listed as “refractory” in [4] and “unsuccessful” in data set [12]. In [7] (human, in vivo), the depression entry is “the depression and PTSD were relieved”. Besides, the “response to previous medications” value in the data set on Huntington's Disease was “no longer responded”.
Take `NCC1(CC(=O)O)CCCCC1` [gabapentin]: the “response to other medications” value is reported as “refractory” in [4], “without any good results” in [5] and “without success” in data set [8]. Also, in the data set with Huntington's Disease, the “response to previous medications” value was “no longer responded”.
Regarding `COC(=O)C(c1ccccc1)C1CCCCN1` (stereo not shown) [methylphenidate], the “response to other medications” value is listed as “unsuccessful” in data set [3]; “unsuccessful” in data set [10]; “refractory” in data set [4]; “without any good results” in [5]; “without any changes in their speech or mode of communication” in data set [6]; “without success” in [8]. Moreover, the figures for the “response to other medications” value in [9] and in [12] were “initially treated successfully” and “Initially their attention problems responded”, respectively. Moreover, the “response of PTSD symptoms” value in [7] is recorded as “unsuccessful”. The “response of ADHD to other medications” value in data set [11] is “without success”. In data set [11], the “side effects of other medications” value is “made their sleepy”.
For `CCCC(CCC)C(=O)O` [valproic acid], the “response to other medications” value in data set [3] was “not helpful”; in the data set on Sexual Function and ADD, “helped their anger attacks but interfered with their concentration considerably and did not help their sexual problems”; in [10], “unsuccessful”; in data set [5] it was “without any good results”; in [8] it was “without success”. The “response of PTSD symptoms” value in [7] is recorded as “unsuccessful”.
On to botulinum toxin, for which the “response to other treatment” value in data set [13] is reported as “only temporarily relieved their symptoms”.
Regarding magnesium pemoline, the “response to other medications” value is recorded as “not helpful” in data set [3]; “unsuccessful” in the data set with Sexual Function and ADD; “unsuccessful” in data set [10]; “without any good results” in data set [5]; “without success” in data set [8]. In addition, in data set [11], the “response of ADHD to other medications” value was “without success”. The “side effects of other medications” value in [11] was “made their sleepy”.
